Experimental data from US9688698B2, “Heteroaromatic compounds and their use as dopamine D1 ligands” (PFIZER INC., priority 2014, dated 2017).
Counter-ions that a name gives are not always drawn.

Molecular target: T1, Human D1 Receptor (Homo sapiens, UniProt P21728)
T1 construct: expressed in transfected cells; host or cells: LTK cell line over-expressing the D1 receptor
Assay: Human D1 Receptor Binding Assay ([3H]-SCH23390 competition binding)
Settings: over-expressing LTK human cell lines; 0.5 nM [3H]-SCH23390; 30 min at 37° C.; footnote a = geometric mean of ≧5 determinations, footnote b = single determination; read-out: Human D1 Receptor Binding, Ki (nM); Geometric mean of 2-4 determinations (unless otherwise indicated)
Protocol: The affinity of the compounds described herein was determined by competition binding assays similar to those described in Ryman-Rasmussen et al., “Differential activation of adenylate cyclase and receptor internalization by novel dopamine D1 receptor agonists”, Molecular Pharmacology 68(4):1039-1048 (2005).
D1 binding assays were performed using over-expressing LTK human cell lines. […] These ligand and tissue concentrations were used in time course studies to determine linearity and equilibrium conditions for binding. Binding was at equilibrium with the specified amount of tissue in 30 minutes at 37° C. […] The pellet was resuspended in assay buffer [50 mM Tris (pH 7.4@RT) containing 4 mM MgSO4 and 0.5 mM EDTA]. […] Non-specific binding was determined by radioligand binding in the presence of a saturating concentration of (+)-Butaclamol (10 μM), a D1 antagonist. After a 30 minute incubation period at 37° C., assay samples were rapidly filtered through Unifilter-96 GF/B PEI-coated filter plates and rinsed with 50 mM Tris buffer (pH 7.4 at 4° C.). […] The IC50 value (concentration at which 50% inhibition of specific binding occurs) was calculated by linear regression of the concentration-response data in Microsoft Excel. Ki values were calculated according to the Cheng-Prusoff equation: […]

T1 sequence (P21728 whole entry): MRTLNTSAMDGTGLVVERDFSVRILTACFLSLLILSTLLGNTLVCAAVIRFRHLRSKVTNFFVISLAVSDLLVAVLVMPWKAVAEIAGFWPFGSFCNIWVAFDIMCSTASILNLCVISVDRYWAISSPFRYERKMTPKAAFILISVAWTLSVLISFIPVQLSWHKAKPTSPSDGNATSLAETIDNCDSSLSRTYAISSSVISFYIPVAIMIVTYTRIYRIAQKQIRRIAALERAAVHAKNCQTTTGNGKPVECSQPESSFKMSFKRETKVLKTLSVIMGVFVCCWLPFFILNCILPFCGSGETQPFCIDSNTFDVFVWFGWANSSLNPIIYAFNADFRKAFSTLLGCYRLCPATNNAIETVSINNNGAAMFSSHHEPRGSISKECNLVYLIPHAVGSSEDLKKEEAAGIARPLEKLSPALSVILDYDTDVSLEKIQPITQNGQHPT

Row | Ki | Structure (SMILES)
1 | 25 nM | Cc1n[nH]c(=O)c(C)c1-c1ccc(Oc2nccc3ncsc23)cc1 [Example 28, 4,6-dimethyl-5-[4-([1,3]thiazolo[5,4-c]pyridin-4-yloxy)phenyl]pyridazin-3(2H)-one]
2 | 1.6 nM | Cc1cc(Oc2nccc3ccsc23)ccc1-c1c(C)ncc(=O)n1C [Example 5, 1,5-dimethyl-6-[2-methyl-4-(thieno[2,3-c]pyridin-7-yloxy)phenyl]pyrazin-2(1H)-one]
3 | 6.7 nM | Cc1ncnc(C)c1-c1ccc(Oc2nccc3ccsc23)cc1Cl [Example 36, 7-[3-chloro-4-(4,6-dimethylpyrimidin-5-yl)phenoxy]thieno[2,3-c]pyridine]
4 | 10.9 nM | Cc1cc(Oc2nccc3cnsc23)ccc1-c1c(C)n[nH]c(=O)c1C [Example 3, 4,6-dimethyl-5-[2-methyl-4-([1,2]thiazolo[5,4-c]pyridin-7-yloxy)phenyl]pyridazin-3(2H)-one]
5 | 57.8 nM | Cc1cc(Oc2nccc3ccoc23)ccc1-c1c(C)ncnc1C [Example 11, 7-[4-(4,6-dimethylpyrimidin-5-yl)-3-methylphenoxy]furo[2,3-c]pyridine]
6 | 480 nM | Cc1ncnc(C)c1-c1ccc(Oc2ncnc3ccsc23)cc1C#N [Example 35, 2-(4,6-dimethylpyrimidin-5-yl)-5-(thieno[3,2-d]pyrimidin-4-yloxy)benzonitrile]
7 | 1890 nM | Cc1cc(Oc2nccc3cc[nH]c23)ccc1-c1nccnc1C [Example 53, 7-[3-methyl-4-(3-methylpyrazin-2-yl)phenoxy]-1H-pyrrolo[2,3-c]pyridine]
8 | 13.5 nM | COc1cc(Oc2nccc3ccsc23)ccc1-c1c(C)ncnc1C [Example 48, 7-[4-(4,6-dimethylpyrimidin-5-yl)-3-methoxyphenoxy]thieno[2,3-c]pyridine]
9 | 184 nM | Cc1ncnc(C)c1-c1ccc(Oc2nccc3ncsc23)cc1C#N [Example 7, 2-(4,6-dimethylpyrimidin-5-yl)-5-([1,3]thiazolo[5,4-c]pyridin-4-yloxy)benzonitrile]
10 | 151 nM | Cc1cc(Oc2nccc3ncsc23)c(F)cc1-c1c(C)ncnc1C [Example 34, 4-[4-(4,6-dimethylpyrimidin-5-yl)-2-fluoro-5-methylphenoxy][1,3]thiazolo[5,4-c]pyridine]
11 | 16.4 nM | COc1cc(Oc2nccc3ccsc23)ccc1-c1cccnc1C [Example 44, 7-[3-methoxy-4-(2-methylpyridin-3-yl)phenoxy]thieno[2,3-c]pyridine, trifluoroacetate salt]
12 | 1.8 nM | Cc1cc(Oc2ncnc3ccsc23)ccc1-c1c(C)c(=O)[nH]c(=O)n1C (single isomer, unassigned) [Example 2, (−)-1,5-dimethyl-6-[2-methyl-4-(thieno[3,2-d]pyrimidin-4-yloxy)phenyl]pyrimidine-2,4(1H,3H)-dione]
13 | 117 nM | Cc1ncnc(C)c1-c1ccc(Oc2ncnc3ccsc23)c(F)c1 [Example 19, 4-[4-(4,6-dimethylpyrimidin-5-yl)-2-fluorophenoxy]thieno[3,2-d]pyrimidine]
14 | 34.5 nM | Cc1ncnc(C#N)c1-c1ccc(Oc2nccc3ccsc23)cc1F [Example 13, 5-[2-fluoro-4-(thieno[2,3-c]pyridin-7-yloxy)phenyl]-6-methylpyrimidine-4-carbonitrile]
15 | 185 nM | COc1cc(Oc2nccc3ncsc23)ccc1-c1c(C)ncnc1C [Example 59, 4-[4-(4,6-dimethylpyrimidin-5-yl)-3-methoxyphenoxy][1,3]thiazolo[5,4-c]pyridine]
16 | 14.3 nM | Cc1cc(Oc2nccc3ccsc23)ccc1-c1c(C)ncnc1C#N (single isomer, unassigned; ent-1) [Example 45, 6-methyl-5-[2-methyl-4-(thieno[2,3-c]pyridin-7-yloxy)phenyl]pyrimidine-4-carbonitrile, ENT-1]
17 | 186 nM | Cc1cc(Oc2nccc3ncsc23)ccc1-c1cn[nH]c(=O)c1C [Example 27, 4-methyl-5-[2-methyl-4-([1,3]thiazolo[5,4-c]pyridin-4-yloxy)phenyl]pyridazin-3(2H)-one]
